Results taken from patent US20200236933A1, “USE OF A NON-IONIC SURFACTANT WHICH IS A POLYOL DERIVATIVE AS A PLANT GROWTH STIMULATING AGENT OR AS AN ADJUVANT” (priority 2017, published 2020).

Experiments:
maize seeds = experiment: Germination of maize seeds, comparison of surfactants (Examples 13-19); type: in vivo; conditions: maize seeds immersed 1 h in 0.75% solution
Description: The treatment of the maize seeds consists of immersing them 1 h in a solution comprising water alone (control batch) or in a solution composed of 98.25% water and 0.75% of a polyol derivative non-ionic surfactant (treated batch, Sub4). The seeds are next dried in a heating tunnel at 45° C. for one hour. Two batch repetitions of 16 seeds are deposited on Petri dishes containing a medium composed of 2% Agar Agar and 98% water. The Petri dishes are kept at ambient temperature and in darkness. Each day the number of seeds that have germinated (having a radicle) is counted. The treatment of the maize seeds consists of immersing them 1 h in a solution comprising water alone (control batch) or in a solution composed of 98.25% water and 0.75% of a polyol derivative non-ionic surfactant (treated batch, Sub1). The seeds are next dried in a heating tunnel at 45° C. for one hour. Two batch repetitions of 16 seeds are deposited on Petri dishes containing a medium composed of 2% Agar Agar and 98% water. The Petri dishes are kept at ambient temperature and in darkness. Each day the number of seeds that have germinated (having a radicle) is counted. The treatment of the maize seeds consists of immersing them 1 h in a solution comprising water alone (control batch) or in a solution composed of 98.25% water and 0.75% of a polyol derivative non-ionic surfactant (treated batch, Sub7). The seeds are next dried in a heating tunnel at 45° C. for one hour. Two batch repetitions of 16 seeds are deposited on Petri dishes containing a medium composed of 2% Agar Agar and 98% water. The Petri dishes are kept at ambient temperature and in darkness. Each day the number of seeds that have germinated (having a radicle) is counted. The treatment of the maize seeds consists of immersing them 1 h in a solution comprising water alone (control batch) or in a solution composed of 98.25% water and 0.75% of a polyol derivative non-ionic surfactant (treated batch, Sub2). The seeds are next dried in a heating tunnel at 45° C. for one hour. Two batch repetitions of 16 seeds are deposited on Petri dishes containing a medium composed of 2% Agar Agar and 98% water. The Petri dishes are kept at ambient temperature and in darkness. Each day the number of seeds that have germinated (having a radicle) is counted. The treatment of the maize seeds consists of immersing them 1 h in a solution comprising water alone (control batch) or in a solution composed of 98.25% water and 0.75% of a polyol derivative non-ionic surfactant (treated batch, Sub3). The seeds are next dried in a heating tunnel at 45° C. for one hour. Two batch repetitions of 16 seeds are deposited on Petri dishes containing a medium composed of 2% Agar Agar and 98% water. The treatment of the maize seeds consists of immersing them 1 h in a solution comprising water alone (control batch) or in a solution composed of 98.25% water and 0.75% of a polyol derivative non-ionic surfactant (treated batch, Sub6). The seeds are next dried in a heating tunnel at 45° C. for one hour. Two batch repetitions of 16 seeds are deposited on Petri dishes containing a medium composed of 2% Agar Agar and 98% water. The treatment of the maize seeds consists of immersing them 1 h in a solution comprising water alone (control batch) or in a solution composed of 98.25% water and 0.75% of a polyol derivative non-ionic surfactant (treated batch, Sub5). The seeds are next dried in a heating tunnel at 45° C. for one hour. Two batch repetitions of 16 seeds are deposited on Petri dishes containing a medium composed of 2% Agar Agar and 98% water. The Petri dishes are kept at ambient temperature and in darkness. Each day the number of seeds that have germinated (having a radicle) is counted.

Aspergillus niger = experiment: Fungicide effect by antibiogram type method; type: cell-based; conditions: positive control
Source text: In order to evaluate any impact of the sugar esters used according to the invention on microorganisms, the fungicide effect was searched for by an antibiogram type method. The method consists of: • spreading a solution contaminated with the mold Aspergillus niger on the surface of a Petri dish containing glucose gel growth medium with chloramphenicol. • arrange 4 sterile antibiogram disks of 6 mm diameter per Petri dish. • inoculate with 3 drops (0.071 g) of solution to test or control solution per disk. The dishes are next placed in the incubator at 25° C. for 5 days. Measurement of the inhibitory diameter is carried out every day.

Compound | germination rate (maize seeds; D1) | germination rate (maize seeds; D2) | further results
Methylglucose dioleate | 18% | 65% | –
Fc1ccc([C@]2(Cn3cncn3)O[C@H]2c2ccccc2Cl)cc1 (racemic) [Epoxiconazole, reference compound] | – | – | Inhibitory diameter (Aspergillus niger; D1): 0 mm; Inhibitory diameter (Aspergillus niger; D2): 32 mm; Inhibitory diameter (Aspergillus niger; D3): 30 mm; Inhibitory diameter (Aspergillus niger; D4): 30 mm; Inhibitory diameter (Aspergillus niger; D5): 29 mm
CCCCCCCCCCCC(=O)N(C)C[C@H](O)[C@@H](O)[C@H](O)[C@H](O)CO [N-lauroyl-N-methyl glucamide] | 28% | 65% | –
CCCCCCCCCCO[C@@H]1O[C@H](CO)[C@@H](O)[C@H](O)[C@H]1O [decyl glucoside, Decyl glucoside] | 19% | 84% | –
Glucose stearate | 34% | 78% | –
Sorbitan laurate | 31% | 78% | –
Sucrose palmitate | 28% | 78% | –
Polyethoxylated sorbitan laurate | 25% | 78% | –
